From US6187802A, “Substituted 4-arylmethylene-2-imino-2,3-dihydrothiazoles and derivatives and their pharmaceutical use” (Knoll Aktiengesellschaft, priority 1997, dated 2001)
Counter-ions that a name gives are not always drawn.

How the values were obtained:
[1] = molecular target: T1, 5-hydroxytryptamine (5-HT) reuptake sites (Rattus norvegicus, UniProt P31652); assay: displacement of [3H]paroxetine from 5-HT reuptake sites, frontal cortical membranes; format: binding; conditions: 10^-6 M test compound, [3H]paroxetine 30 pM, one test only, read-out: 5-HT uptake (% displacement of specific binding of tritiated ligand)
T1 construct: Frontal cortical tissue from the brains of male Sprague-Dawley rats; from tissue; host or cells: rat brain frontal cortex (crude synaptosomes in A2, washed membranes in A5)
Outline: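 Rat frontal cortex membranes (male, 150-250 g; 2 mg wet tissue/tube) in 50 mM Tris-HCl pH 7.5 with 120 mM NaCl and 5 mM KCl, incubated 2 h at 22 °C with 30 pM [3H]paroxetine and compound at 10^-6 M. Citalopram 1 μM defined non-specific binding; values are % displacement of specific binding from a single test, filtration and scintillation counting.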

[2] = molecular target: T2, noradrenaline (NA) reuptake sites (Rattus norvegicus, UniProt Q63380); assay: displacement of [3H]nisoxetine from noradrenaline reuptake sites, frontal cortical membranes; conditions: 10^-6 M test compound, [3H]nisoxetine 0.6 nM, one test only, read-out: NA uptake (% displacement of specific binding of tritiated ligand)
T2 construct: Frontal cortical tissue from the brains of male Sprague-Dawley rats; from tissue; host or cells: rat brain frontal cortex (crude synaptosomes in A3, washed membranes in A6)
Outline: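 Washed male rat frontal cortex membranes in 50 mM Tris pH 7.4, 300 mM NaCl, 5 mM KCl, incubated 4 h at 4 °C with 0.6 nM [3H]nisoxetine and test compound at 10^-6 M; mazindol (1 μM) defined non-specific binding. Filtration, scintillation counting; % displacement of specific binding, single test.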

[3] = molecular target: T3, dopamine (DA) reuptake sites (Rattus norvegicus, UniProt P23977); assay: displacement of [3H]GBR 12935 from dopamine reuptake sites, striatal membranes; format: binding; conditions: 10^-6 M test compound, [3H]GBR 12935 1 nM, one test only, read-out: DA uptake (% displacement of specific binding of tritiated ligand)
T3 construct: Striatal tissue from the brains of male Charles River rats weighing 150-250 g; from tissue; host or cells: rat brain striatum (crude synaptosomes in A1, washed membranes in A4)
Outline: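 Rat striatal membranes (male rats, 150-250 g) incubated 90 min at 4 °C with 1 nM [3H]GBR 12935 in 50 mM Tris-HCl pH 7.4, 200 mM NaCl, 5 mM KCl; non-specific binding with 1 μM mazindol. Filtration, scintillation counting; value is % displacement of specific binding at 10^-6 M, single test; IA means <50%.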

T3 sequence (P23977 whole entry): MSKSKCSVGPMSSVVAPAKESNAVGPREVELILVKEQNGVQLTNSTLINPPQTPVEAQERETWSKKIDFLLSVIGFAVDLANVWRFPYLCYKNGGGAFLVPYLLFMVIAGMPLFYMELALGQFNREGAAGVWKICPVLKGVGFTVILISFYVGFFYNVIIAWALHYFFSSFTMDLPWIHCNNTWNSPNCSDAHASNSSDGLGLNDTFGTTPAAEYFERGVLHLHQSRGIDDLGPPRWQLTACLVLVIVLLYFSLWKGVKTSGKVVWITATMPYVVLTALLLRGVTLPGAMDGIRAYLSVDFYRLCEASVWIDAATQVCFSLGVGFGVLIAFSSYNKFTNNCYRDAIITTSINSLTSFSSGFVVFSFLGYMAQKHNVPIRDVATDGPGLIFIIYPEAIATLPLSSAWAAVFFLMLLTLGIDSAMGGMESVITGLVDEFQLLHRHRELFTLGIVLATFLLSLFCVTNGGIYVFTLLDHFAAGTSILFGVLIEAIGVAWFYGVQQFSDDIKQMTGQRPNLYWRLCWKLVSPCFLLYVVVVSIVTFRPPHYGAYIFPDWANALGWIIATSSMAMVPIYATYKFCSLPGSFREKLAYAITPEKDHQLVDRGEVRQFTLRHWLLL
T1 sequence (P31652 whole entry): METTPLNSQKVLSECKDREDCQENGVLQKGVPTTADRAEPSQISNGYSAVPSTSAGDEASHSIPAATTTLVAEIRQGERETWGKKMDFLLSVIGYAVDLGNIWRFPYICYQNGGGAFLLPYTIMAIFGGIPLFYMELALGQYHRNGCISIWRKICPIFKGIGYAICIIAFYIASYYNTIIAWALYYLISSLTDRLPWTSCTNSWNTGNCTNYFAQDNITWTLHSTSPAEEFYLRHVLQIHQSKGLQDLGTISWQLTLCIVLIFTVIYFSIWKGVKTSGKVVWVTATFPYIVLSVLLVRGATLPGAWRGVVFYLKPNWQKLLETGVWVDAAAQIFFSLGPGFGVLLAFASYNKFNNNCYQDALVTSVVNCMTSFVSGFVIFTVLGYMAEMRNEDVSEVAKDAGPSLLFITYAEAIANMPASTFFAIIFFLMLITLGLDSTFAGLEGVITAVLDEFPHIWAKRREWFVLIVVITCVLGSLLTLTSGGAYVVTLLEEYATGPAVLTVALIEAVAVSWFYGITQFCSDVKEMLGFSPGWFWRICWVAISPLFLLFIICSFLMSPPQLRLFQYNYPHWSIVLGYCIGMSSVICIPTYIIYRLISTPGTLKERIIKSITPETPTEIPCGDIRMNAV
T2 sequence (Q63380 1-617): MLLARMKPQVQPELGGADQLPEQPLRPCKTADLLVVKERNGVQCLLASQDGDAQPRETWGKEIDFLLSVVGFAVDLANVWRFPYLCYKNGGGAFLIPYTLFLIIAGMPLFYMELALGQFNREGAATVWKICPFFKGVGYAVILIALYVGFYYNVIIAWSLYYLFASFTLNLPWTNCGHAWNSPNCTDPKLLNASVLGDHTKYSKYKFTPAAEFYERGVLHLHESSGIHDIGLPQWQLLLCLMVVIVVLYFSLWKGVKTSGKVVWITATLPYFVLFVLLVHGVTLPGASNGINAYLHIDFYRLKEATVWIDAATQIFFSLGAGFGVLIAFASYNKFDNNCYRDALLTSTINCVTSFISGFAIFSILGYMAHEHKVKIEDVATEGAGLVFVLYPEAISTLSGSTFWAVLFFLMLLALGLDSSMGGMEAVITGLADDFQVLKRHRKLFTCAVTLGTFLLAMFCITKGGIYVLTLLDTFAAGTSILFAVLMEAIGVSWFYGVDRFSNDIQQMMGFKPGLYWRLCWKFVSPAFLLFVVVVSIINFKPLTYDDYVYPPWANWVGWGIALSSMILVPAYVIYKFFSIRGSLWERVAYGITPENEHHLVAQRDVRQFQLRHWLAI

Compound	inhibition at 1 µM [1] [%]	inhibition at 1 µM [2] [%]	inhibition at 1 µM [3] [%]
CC(C)(C1=CSC2=NCCN12)c1ccc(Cl)c(Cl)c1 [Example 11, 3-[1-(3,4-dichlorophenyl)-1-methylethyl]-5,6-dihydroimidazo[2,1-b]-thiazole hydrobromide]	57	< 50	102
CCCCN=c1scc(C2(c3ccc(Oc4ccccc4)cc3)CCC2)n1CCCC [Example 59, 3-Butyl-2-butylimino-4-[1-(4-phenoxyphenyl)cyclobutyl]-2,3-dihydrothiazole hydrobromide]	< 50	< 50	73
Cc1ccc(N=c2scc(C3(c4ccc(Cl)c(Cl)c4)CCC3)n2-c2ccc(C)cc2C)c(C)c1 [Example 31, 4-[1-(3,4-Dichlorophenyl)cyclobutyl]-3-(2,4-xylyl)-2-(2,4-xylylimino)-2,3-dihydrothiazole hydrobromide]	< 50	< 50	63
COCCC1=C(C2(c3ccc(Cl)c(Cl)c3)CCC2)N2CCN=C2S1 [Example 8, 3-[1-(3,4-dichlorophenyl)cyclobutyl]-2-(2-methoxyethyl)-5,6-dihydroimidazo[2,1-b]-thiazole hydrobromide]	62	< 50	< 50
c1ccc(CN=c2scc(C3(c4ccc5ccccc5c4)CCC3)n2Cc2ccccc2)cc1 [Example 44, 3-Benzyl-2-benzylimino-4-[1-(2-naphthyl)cyclobutyl]-2,3-dihydrothiazole hydrobromide]	72	< 50	96
CCCCN=c1scc(C2(c3ccc(Br)cc3)CCC2)n1CCCC [Example 57, 4-[1-(4-Bromophenyl)cyclobutyl]-3-butyl-2-butylimino-2,3-dihydrothiazole hydrobromide]	< 50	< 50	94
Clc1ccc(C2(c3csc(=NCCc4ccccc4)n3CCc3ccccc3)CCC2)cc1Cl [Example 24, 4-[1-(3,4-Dichlorophenyl)cyclobutyl]-3-phenethyl-2-phenethylimino-2,3-dihydrothiazole hydrobromide]	< 50	< 50	90
Clc1ccc(C2=C(C3(c4ccc(Cl)c(Cl)c4)CCC3)N3CCN=C3S2)cc1 [Example 10, 2-(4-chlorophenyl)-3-[1-(3,4-dichlorophenyl)cyclobutyl]-5,6-dihydroimidazo[2,1-b]thiazole hydrobromide]	57	< 50	85
CC(C)CN=c1scc(C2(c3ccc(Cl)c(Cl)c3)CCC2)n1CC(C)C [Example 19, 4-[1-(3,4-Dichlorophenyl)cyclobutyl]-3-isobutyl-2-isobutylimino-2,3-dihydrothiazole hydrobromide]	89	< 50	107
Brc1ccc(C2(C3=CSC4=NCCN34)CCC2)cc1 [Example 70, 3-[1-(4-Bromophenyl)cyclobutyl]-5,6-dihydroimidazo[2,1-b]thiazole hydrobromide]	< 50	52	80
Cc1ccc(N=c2scc(C3(c4ccc5ccccc5c4)CCC3)n2-c2ccc(C)cc2)cc1 [Example 50, 4-[1-(2-Naphthyl)cyclobutyl]-3-(p-tolyl)-2-(p-tolylimino)-2,3-dihydrothiazole hydrobromide]	< 50	< 50	68
Clc1ccc(C2(c3csc(=NCCc4ccccc4)n3CCc3ccccc3)CCC2)cc1 [Example 64, 4-[1-(4-Chlorophenyl)cyclobutyl]-3-phenethyl-2-phenethylimino-2,3-dihydrothiazole hydrobromide]	< 50	< 50	102
CN=c1scc(C2(c3ccc(Cl)c(Cl)c3)CCC2)n1C [Example 14, 4-[1-(3,4-Dichlorophenyl)cyclobutyl]-3-methyl-2-methylimino-2,3 dihydrothiazole hydrobromide]	96	80	103
c1ccc2cc(C3(c4csc(=NCC5CC5)n4CC4CC4)CCC3)ccc2c1 [Example 43, 3-Cyclopropylmethyl-2-cyclopropylmethylimino4-[1-(2-naphthyl)cyclobutyl]-2,3-dihydrothiazole hydrobromide]	101	93	113
C1=C(C2(c3ccccc3)CCCCC2)N2CCN=C2S1 [Example 72, 3-(1-Phenylcyclohexyl)-5,6-dihydroimidazo[2,1-b]thiazole hydrobromide]	< 50	< 50	70
Cc1ccc(N=c2scc(C3(c4ccc5ccccc5c4)CCC3)n2-c2ccc(C)cc2C)c(C)c1 [Example 52, 4-[1-(2-Naphthyl)cyclobutyl]-3-(2,4-xylyl)-2-(2,4-xylylimino)-2,3-dihydrothiazole hydrobromide]	< 50	< 50	74
CN=c1scc(C2(c3ccc4ccccc4c3)CCC2)n1C [Example 36, 3-Methyl-2-methylimino-4-[1-(2-naphthyl)cyclobutyl]-2,3-dihydrothiazole hydrobromide]	101	101	108
C=CCN=c1scc(C2(c3ccc(Cl)c(Cl)c3)CCC2)n1CC=C [Example 20, 3-Allyl-2-allylimino-4-[1-(3,4-dichlorophenyl)cyclobutyl]-2,3-dihydrothiazole hydrobromide]	104	91	105
Clc1ccc(C2(c3csc(=NCC4CC4)n3CC3CC3)CCC2)cc1Cl [Example 21, 4-[1-(3,4-Dichlorophenyl)cyclobutyl]-3-cyclopropylmethyl-2-cyclopropylmethylimino-2,3-dihydrothiazole hydrobromide]	103	50	108
CCCCN=c1scc(C(C)(C)c2ccc(Cl)cc2)n1CCCC [Example 62, 3-Butyl-2-butylimino-4-[1-(4-chlorophenyl)-1-methylethyl]-2,3-dihydrothiazole hydrobromide]	< 50	< 50	55
Clc1ccc(C2(c3csc(=NCc4ccco4)n3Cc3ccco3)CCC2)cc1Cl [Example 26, 4-[1-(3,4-Dichlorophenyl)cyclobutyl]-3-furfuryl-2-furfurylimino-2,3-dihydrothiazole hydrobromide]	92	< 50	116
c1cncc(CN=c2scc(C3(c4ccc5ccccc5c4)CCC3)n2Cc2cccnc2)c1 [Example 47, 4-[1-(2-Naphthyl)cyclobutyl]-3-(3-pyridylmethyl)-2-(3-pyridylmethylimino)-2,3-dihydrothiazole hydrobromide]	99	92	109
